Experimental data reported in patent publication US20030158199A1, “Novel compounds for inhibition of Tie-2” (KYLIX, B.V., priority 2002, published 2003).
Where a name gives a salt, the structure may show the parent alone.

Experiments:
Format in all cases: biochemical
Tie-2 = target: T1, Tie-2 (Homo sapiens, UniProt Q02763); experiment: RTK ELISA, recombinant kinase domain, Tie-2; conditions: GST-Tie2/Tek (aa 771-1124) expressed in baculovirus infected insect cells
T1 construct: GST-Tie2/Tek (aa 771-1124); GST (N); purchased ProQuinase, Freiburg; host or cells: baculovirus infected insect cells Sf9
T1 sequence (Q02763 771-1124): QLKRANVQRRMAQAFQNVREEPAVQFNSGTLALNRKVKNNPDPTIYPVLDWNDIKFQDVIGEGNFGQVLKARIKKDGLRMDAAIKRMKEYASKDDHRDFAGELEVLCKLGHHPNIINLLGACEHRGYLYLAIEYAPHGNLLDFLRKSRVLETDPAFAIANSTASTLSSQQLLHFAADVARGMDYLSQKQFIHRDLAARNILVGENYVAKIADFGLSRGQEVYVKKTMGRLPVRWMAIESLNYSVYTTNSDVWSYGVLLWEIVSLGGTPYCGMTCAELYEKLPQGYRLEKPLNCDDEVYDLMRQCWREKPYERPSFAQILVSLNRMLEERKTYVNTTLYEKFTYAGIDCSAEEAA
Description: (§1) Follwing IC50 values were determined in the RTK ELISA using recombinant kinase domains of receptor tyrosine kinases which were expressed in baculovirus infected insect cells.
(§2) Receptor Tyrosine Kinase Assay
(§3) The following in vitro assays are used to determine the ability of different compounds to inhibit the transfer of phosphate groups onto tyrosine residues of downstream substrates. The level of phosphorylation is measured by a monoclonal antibody which is specific for phosphorylated tyrosine residues in an enzyme-linked immunosorbent assay (ELISA).
(§4) The following recombinant kinases were expressed in baculovirus infected insect cells Sf9 and purchased from ProQuinase, Freiburg:
(§5) If not otherwise indicated all steps are performed at room temperature.
(§6) 1.) Coat wells of ELISA plate with […] Poly-Glu-Tyr 4:1 in 100 μl/well PBS buffer (137 mM NaCl, 3 mM KCl, 1.5 mM KH2PO4, 8.2 mM Na2HPO4) overnight at 4° C.
(§7) 2.) Wash 2 times for 5 min each with PBS+0.05% Tween20 […]
(§8) a) Add 5-30 ng/well kinase in 50 μl/well kinase buffer (100 mM HEPES pH 7.4, 100 mM NaCl, 0.1 mM Na3VO4) b) Add 25 μl/well compound (50 and 5 μM) in 5% DMSO c) Add 25 μl/well 100 μM ATP in 40 mM MnCl2
(§9) 4.) Wash 3 times for 5 min each with PBS+0.05% Tween20
(§10) 5.) Add anti phosphotyrosin antibody/HRP 1:10.000 in 100 μl/well PBS+0.05% Tween+0.1 BSA, incubate for 1 h
(§11) 6.) Wash 3 times for 5 min each with PBS+0.05% Tween20
(§12) 7.) Chemoluminescence reaction: a.) Premix 25 μl/well BM CLS Solution 1 with 0.25 μl/well BM CLS Solution 2 b.) Preincubate for 15 min […]
(§13) d.) Add 50 μl/well substrate solution to microtiter wells e.) Incubate for at least 1 min
(§14) 8.) Detect chemoluminescence signals in Tecan Genios reader

KDR = target: T2, KDR (Homo sapiens, UniProt P35968); experiment: RTK ELISA, recombinant kinase domain, KDR; conditions: GST-KDR (aa807-1356) expressed in baculovirus infected insect cells
T2 construct: GST-KDR (aa807-1356); GST (N); purchased ProQuinase, Freiburg; host or cells: baculovirus infected insect cells Sf9
T2 sequence (P35968 807-1356): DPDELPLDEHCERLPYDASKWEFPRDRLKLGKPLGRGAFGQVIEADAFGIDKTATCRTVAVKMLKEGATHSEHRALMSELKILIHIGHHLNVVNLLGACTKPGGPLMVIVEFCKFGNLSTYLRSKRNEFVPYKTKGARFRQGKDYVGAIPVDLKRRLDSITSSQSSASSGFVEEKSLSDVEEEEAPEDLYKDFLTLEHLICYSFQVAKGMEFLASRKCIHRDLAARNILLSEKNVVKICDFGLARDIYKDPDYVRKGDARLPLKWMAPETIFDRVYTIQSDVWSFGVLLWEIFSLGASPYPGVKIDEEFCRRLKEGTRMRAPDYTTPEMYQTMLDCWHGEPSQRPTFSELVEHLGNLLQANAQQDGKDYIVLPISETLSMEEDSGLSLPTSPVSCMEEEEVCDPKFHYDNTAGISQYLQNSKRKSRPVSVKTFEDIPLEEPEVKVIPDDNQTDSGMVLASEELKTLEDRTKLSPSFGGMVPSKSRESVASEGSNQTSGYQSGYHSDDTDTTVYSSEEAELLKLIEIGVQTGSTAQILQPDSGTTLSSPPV
Description: as §1, §2, §3, §4, §5, §6, §7, §8, §9, §10, §11, §12, §13, §14

c-Met = target: T3, c-Met (Homo sapiens, UniProt P08581); experiment: RTK ELISA, recombinant kinase domain, c-Met; conditions: GST-cMet (aa956-1390) expressed in baculovirus infected insect cells
T3 construct: GST-cMet (aa956-1390); GST (N); purchased ProQuinase, Freiburg; host or cells: baculovirus infected insect cells Sf9
T3 sequence (P08581 956-1390): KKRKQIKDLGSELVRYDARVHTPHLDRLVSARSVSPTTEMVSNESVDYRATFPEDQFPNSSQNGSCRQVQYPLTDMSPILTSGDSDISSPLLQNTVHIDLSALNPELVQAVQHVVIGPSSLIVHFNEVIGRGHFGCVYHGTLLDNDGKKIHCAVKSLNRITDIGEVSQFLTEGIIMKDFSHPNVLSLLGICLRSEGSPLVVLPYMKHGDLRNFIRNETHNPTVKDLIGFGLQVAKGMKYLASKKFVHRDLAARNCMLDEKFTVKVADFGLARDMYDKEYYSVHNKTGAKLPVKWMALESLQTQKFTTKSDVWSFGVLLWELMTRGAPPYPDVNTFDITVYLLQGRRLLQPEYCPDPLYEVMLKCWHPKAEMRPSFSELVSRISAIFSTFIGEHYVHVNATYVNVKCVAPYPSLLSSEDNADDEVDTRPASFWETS
Description: as §1, §2, §3, §4, §5, §6, §7, §8, §9, §10, §11, §12, §13, §14

## CNc1nc(-c2ccc(-c3ccccn3)s2)cs1 [Number 36, methyl-[4-(5-pyridin-2-yl-thiophen-2-yl)-thiazol-2-yl]-amine Hydrobromide]
Tie-2
  IC50: > 20 µM
KDR
  IC50: > 10 µM
c-Met
  IC50: > 50 µM

## CCN(CC)c1ccc(-c2csc(C)n2)cc1 [Number 33, diethyl-[4-(2-methyl-thiazol-4-yl)-phenyl]-amine Hydrobromide]
Tie-2
  IC50: 5 µM
KDR
  IC50: 5 µM
c-Met
  IC50: > 50 µM

## CCN(CC)c1ccc(-c2csc(Nc3cccc(C(F)(F)F)c3)n2)cc1 [Number 32, [4-(4-diethylamino-phenyl)-thiazol-2-yl-(3-trifluoromethyl-phenyl)-amine Hydrobromide]
Tie-2
  IC50: 3 µM
KDR
  IC50: 5 µM
c-Met
  IC50: > 50 µM

## c1cncc(-c2nc(-c3ccc(N4CCCC4)cc3)co2)c1 [Number 14, 3-[4-(4-pyrrolidin-1-yl-phenyl)-oxazol-2-yl]-pyridine Hydrobromide]
Tie-2
  IC50: 5 µM
KDR
  IC50: > 50 µM
c-Met
  IC50: > 25 µM

## c1ccc(CCNc2nc(-c3ccccn3)cs2)cc1 [Number 35, phenylethyl-(4-pyridin-2-yl-thiazol-2-yl)-amine Hydrobromide]
Tie-2
  IC50: 1 µM
KDR
  IC50: 1 µM
c-Met
  IC50: 2 µM

## c1ccc(-c2ccc(-c3csc(Nc4cccnc4)n3)s2)nc1 [Number 37, pyridin-3-yl-[(4-(5-pyridin-2-yl-thiophen-2-yl)-thiazol-2-yl]-amine Hydrobromide]
Tie-2
  IC50: 2.5 µM
KDR
  IC50: > 50 µM
c-Met
  IC50: > 50 µM

## CCN(CC)c1ccc(-c2csc(N)n2)cc1 [Number 23, 4-(4-diethylamino-phenyl)-thiazol-2-ylamine Hydrobromide]
Tie-2
  IC50: 5 µM
KDR
  IC50: 2 µM
c-Met
  IC50: > 50 µM

## c1cc(Nc2nc(-c3ccc(N4CCCC4)cc3)cs2)ccn1 [Number 15, pyridin-4-yl-[4-(4-pyrrolidin-1-yl-phenyl)-thiazol-2-yl]-amine Hydrobromide]
Tie-2
  IC50: 1 µM
KDR
  IC50: 5 µM
c-Met
  IC50: > 10 µM

## c1ccc(CNc2nc(-c3ccc(N4CCCC4)cc3)cs2)cc1 [Number 10, benzyl-[4-(4-pyrrolidin-1-yl-phenyl)-thiazol-2-yl]-amine Hydrobromide]
Tie-2
  IC50: 5 µM
KDR
  IC50: > 50 µM
c-Met
  IC50: > 50 µM

## CNc1nccs1 [Number 2, methyl-thiazol-2-yl-amine Hydrochloride]
Tie-2
  IC50: > 50 µM
KDR
  IC50: 5 µM
c-Met
  IC50: > 50 µM

## Nc1nc(-c2ccc(N3CCCC3)cc2)cs1 [Number 5, 4-(4-pyrrolidin-1-yl-phenyl)-thiazol-2-ylamine Hydrobromide]
Tie-2
  IC50: 2.5 µM
KDR
  IC50: 5 µM
c-Met
  IC50: 5 µM

## CNc1nc(-c2cnn(-c3ccccc3)c2C)cs1 [Number 34, methyl-[4-(5-methyl-1-phenyl-1H-pyrazol-4-yl)-thiazol-2-yl]-amine Hydrochloride]
Tie-2
  IC50: 1.5 µM
KDR
  IC50: 1.5 µM
c-Met
  IC50: > 50 µM

## CCN(CC)c1ccc(-c2coc(N)n2)cc1 [Number 24, 4-(4-diethylamino-phenyl)-oxazol-2-ylamine Hydrobromide]
Tie-2
  IC50: 5 µM
KDR
  IC50: 1.5 µM
c-Met
  IC50: > 50 µM

## c1ccc(Nc2nc(-c3ccc(N4CCCC4)cc3)cs2)nc1 [Number 12, Hydrobromide]
Tie-2
  IC50: > 50 µM

## c1ccc(Nc2nccs2)cc1 [Number 3, phenyl-thiazol-2-yl-amine Hydrochloride]
KDR
  IC50: 3.5 µM
c-Met
  IC50: > 50 µM

## CCN(CC)c1ccc(-c2csc(Nc3cccnc3)n2)cc1 [Number 30]
Tie-2
  IC50: 0.8 µM
KDR
  IC50: 3 µM
c-Met
  IC50: > 50 µM

## Cc1nc(-c2ccc(N3CCCC3)cc2)cs1 [Number 21, 2-methyl-4-(4-pyrrolidin-1-yl-phenyl)-thiazole Hydrobromide]
Tie-2
  IC50: 2.5 µM
c-Met
  IC50: > 50 µM

## c1ccc(CCNc2nc(-c3ccc(N4CCCC4)cc3)cs2)cc1 [Number 11, phenylethyl-[4-(4-pyrrolidin-1-yl-phenyl)-thiazol-2-yl]-amine Hydrobromide]
Tie-2
  IC50: > 50 µM
